Data published in patent publication US8039501B2, “Synephrine derivatives useful as anti-inflammatory agents” (Universiteit Gent, priority 2005, dated 2011).

Tests used:
[1] = tested on: L363 cell line; assay: MTT test, cell viability of L363 cells; assay type: cell-based, human; conditions: Homo sapiens, L-363; 10^−4 M; 10% FCS; FIG. 3B; read-out: Block of L363 cell viability
Description: The MTT test is a standard assay addressing cell toxicity of a compound. It is based on the principle that after 3-4 hours of cell incubation with MTT (3-(4,5-dimethylthiazole-2-yl)-2,5-diphenyl tetrazolium bromide) so-called purple formazan crystals develop in living and early apoptotic cells. Dead cells don't produce formazan crystals.
Different cell lines were tested. Unless indicated differently, A549 human lung epithelial cells (derived from lung carcinoma) and L929sA murine fibroblast cells were cultured in DMEM with 10% FCS, 100 U/ml penicillin and 100 μg/ml streptomycin. Unless indicated differently, the human multiple myeloma cell lines L363, U266 and MM1.S were cultured in RPMI 1640 with Glutamax-I, supplemented with 10% FCS, 100 U/ml penicillin and 100 μg/ml streptomycin. Cells were seeded at 5000 cells/well (for adherent A549 and L929sA cells) or at 10000 cells/well (for the multiple myeloma lines in suspension) in 96 well plates. Cells were incubated in the presence of the respective synephrine compounds or vehicle (EtOH; for control test) in a final volume of 0.2 ml for 24 or 48 hours at 37° C. Subsequently, 20 μl of MTT solution (5 mg/ml in phosphate-buffered saline) was added to each well. After 4 hours incubation at 37° C., 80 μl of the extraction buffer (10% SDS, 0.01 M HCl) was added. After overnight incubation at room temperature, the optical densities at 590 nm were measured. Results are illustrated in FIGS. 2 to 6 and are expressed as percentage of viable cells as compared to vehicle-treated controls.
The MTT test was further extended to include alternative synephrine derivatives and a range of multiple myeloma cell lines for which the results are illustrated by FIGS. 3A, 3B and 4A. Human multiple myeloma cell lines L363, U266 and MM1.S were cultured in RPMI 1640 with Glutamax-I, supplemented with 10% FCS, 100 U/ml penicillin and 100 μg/ml streptomycin. Cells were seeded at 10000 cells/well in 96 well plates. Cells were incubated in the presence of test compounds or vehicle in a final volume of 0.2 ml for 24 or 48 hours at 37° C. The test compounds included in the test were the synephrine derivatives CpdA, Naphth, Benz and Isobut, and DEX as a comparative example. Subsequently, 20 μl of MTT solution (5 mg/ml in phosphate-buffered saline) was added to each well. After 4 hours incubation at 37° C., 80 μl of the extraction buffer (10% SDS, 0.01 M HCl) was added. After 48 hours incubation at room temperature, the optical densities at 590 nm were measured. Results are expressed as percentage of viable cells as compared to vehicle-treated controls.

[2] = tested on: MCF7 breast cancer cells; conditions: 10^−5 M
Description: In further experiments, nylon arrayfilter hybridization experiments were performed. cDNA array analyses were carried out according to the instructions of the manufacturer (SuperArray Simplicity GEArray™ KIT) on the cDNA arrays cancer pathway finder and stress and toxicity array. Total RNA, obtained by the protocol as described herein above, was used as a template for [α−^33P]-cDNA probe synthesis using the following steps:
A second array hybridization experiment was performed on Human Stress and Toxicity Pathway Finder GEarray Q series. The same protocol was followed as for the array hybridization experiment on the Human Cancer Pathway Finder described herein above.

[3] = tested on: MG63b; assay: Q-PCR gene expression in osteosarcoma cell-line MG63b; assay type: cell-based, human; conditions: 10 μM
Description: (§1) CpdA was synthesized as described previously. […] They were sacrificed and livers were isolated. […] Gene expression of HPRT was used for normalization. […] Gene expression of HPRT was used for normalization. […] Gene expression of HPRT was used for normalization. Statistical significance was determined by one way anova. […] Gene expression of HPRT was used for normalization. […] Gene expression of HPRT was used for normalization. Statistical significance was determined by one way anova. […] Statistical significance was determined with a Kruskal-Wallis test.

[4] = tested on: FLS cells (fibroblast-like synoviocytes); assay: Q-PCR/ELISA gene expression in primary FLS of RA patients; assay type: cell-based, human
Description: as §1
Western blot analysis was performed on total protein extracts with an anti-GR(H-300) antibody. The detection of ERK was used as a loading control. After 8 days of treatment liver samples were taken from the PBS, DEX (20 μg) or CpdA (300 μg) treated DBA/1 mice (FIG. 22B). Q-PCR was performed for the detection of GR in the different samples. Statistical significance was determined with a Mann-Whitney Test. FLS were pre-treated with solvent, DEX (1 μM) or CpdA (10 μM) for 1 hour (set-up 1) or 24 hours (set-up 2), as indicated in the figures. Afterwards, TNF (2000 units/ml) was added for 6 h. Western blot analysis was performed on total extracts with an anti-GR(H-300) antibody (FIG. 19A). Detection of ERK was used as a loading control. The Human Inflammation Array was incubated with medium of cultured FLS and developed following the manufacturer's instruction (FIG. 19B). Total RNA was isolated from the induced FLS and subjected to reverse transcriptase PCR. […] Gene expression of HPRT was used for normalization. Statistical significance was determined by one way anova. […] Since it has been proposed that the cellular sensitivity to GC is directly proportional to the receptor concentration, the mechanism of homologous down-regulation appears to drastically affect the cellular sensitivity of primary human RA-FLS to GC therapy. […] Such an effect can not be observed with CpdA. […] Therefore, it is not surprising that some patients who develop resistance to the therapeutic effects of GC, still display the unwanted effects associated with prolonged GC treatment. […] All publications and patent applications mentioned in this specification are herein incorporated by reference to the same extent as if each independent publication or patent application was specifically and individually indicated to be incorporated by reference. Other embodiments are within the scope of the claims.

CNCC(Cl)c1ccc(OC(C)=O)cc1.Cl (stereo not shown) [CpdA, 2-(4-acetoxyphenyl)-2-chloro-N-methyl-ethylammonium chloride]
cytotoxicity at 100 µM [1]: 50% | Gene response of CRYAB, DNAJA1, pcna, mdm2 [2]: increased gene response | Levels of HSPA1A, HSPA1B, HSPA4 (=hsp70), CSF2, SCYA4 (MIP1B), ANXA5, casp10, casp8, ERCC5, TNFSF6 (FasL) [2]: increases levels | Expression of OPG ([3]; 24 hours, FIG. 14B): does not down-regulate the expression of OPG | Expression of cathepsin K ([3]; 24 hours, FIG. 14B): does not stimulate the expression of cathepsin K | Expression of pro-inflammatory mediators (anti-inflammatory effect) ([3]; TNF 2000 U/ml 6 hours, FIG. 14A): anti-inflammatory effect | Repression of TNF-induced MCP-1, IL-8 and IL-6 after prolonged treatment (set-up 2) ([4]; 10 μM pre-treated 24 hours, TNF 2000 units/ml 6 h, FIG. 19): still able to repress the TNF-induced expression of MCP-1, IL-8 and IL-6 | RANKL/OPG ratio ([4]; 10 μM, 24 hours): does not alter the RANKL/OPG ratio | Expression of cathepsin K ([4]; 10 μM, 24 hours, FIG. 18): does not stimulate the expression of cathepsin K | Expression of osteoclast differentiation markers M-CSF and RANKL ([4]; 10 μM, 24 hours, FIG. 18, RANKL solvent versus CpdA p>0.05): does not stimulate the expression | Expression of OPG ([4]; 10 μM, 24 hours, FIG. 18, solvent versus CpdA p>0.05): does not down-regulate the expression of OPG | Transactivation function of GR (GRE-driven PCOLCE2 and GS expression) ([4]; 10 μM, FIG. 20): does not evoke the transactivation function of GR | Expression of pro-inflammatory mediators (anti-inflammatory effect) ([4]; 10 μM, TNF 2000 U/ml 6 hours, FIG. 17): anti-inflammatory effect
